Measured values published in patent publication US7173014B2, “HIV-specific synthetic oligonucleotides and methods of their use” (priority 1997, dated 2007).
d = 2'-deoxy (DNA); m = 2'-O-methyl

Columns and labels:
HIV-1 IIB = experiment: CPE-based inhibition of acute infection of MT-4 cells (MTT); type: cell-based
Experimental: CPE based infection experiments were performed using MT-4 cells (Pauwels et al. (1988) J. Virol. Meth. 20:309; Papp et al. (1997) AIDS Research and Human Retroviruses In Press). MT-4 cells were obtained from the AIDS Research and Reference Reagent Bank, Division of AIDS, NIAID, NIH contributed Dr. Richman (Pauwels et al. (1988) J. Virol. Meth. 20:309) T-lymphoid H9 (HUT-78) cells were obtained from Dr. Robert Gallo, National Cancer Institute, Bethesda, Md. (Popovic et al. (1984) Science 224:497; Gazdar et al. (1980) Blood 55:409). Cell cultures were maintained in RPMI 1640 medium (GIBCO Laboratories, Grand Island, N.Y.) supplemented with 20% (H9 cells), or 10% (MT-4 cells) heat-inactivated fetal bovine serum (Sigma Chemical Co., St. Louis, Mo.) 250 units/ml penicillin, 250 μg/ml streptomycin, 2 mM 1-glutamine, and 10 mM HEPES (N-2-hydroxyethylpiperazine-N′-2-ethanesulfonic acid) buffer (complete medium) at 37° C. in 5% CO2. HIV-1 IIB was originally obtained from Dr. Robert Gallo, National Cancer Institute (Popovic (1984) Science 224:497). Virus stocks of HIV-1 were prepared from cell-free filtered supernatant of chronically infected H9 cultures by the shaking method as previously described by Vujoie et al. (J. Infectious Diseases (1988) 157:1047).
Experiments were performed under two sets of conditions. […] The cultures were incubated for 6 days and CPE measured using the MTT dye method. […]

HIV-2 (ROD) = experiment: XTT-based anti-HIV assay, HIV-2; type: cell-based
Source text: (§1) The initial experiment performed involved evaluation of Oligos 12, 32, and 41 against three laboratory strains of HIV-1 (IIIB, RF and SK1) and one strain of HIV-2 (ROD) in parallel with the positive control compound ddC in the XTT-based anti-HIV assay. All these oligonucleotides are active against both HIV-1 and HIV-2.
(§2) CEM-SS sells (AIDS Research and Reference Reagent Program, NIH) or other established human T cell lines used in these experiments were passaged in T-150 flasks for use in the assay. On the day preceding the assay, the cells were split 1:2 to assure they would be in an exponential growth phase at time of infection. On the day of assay the cells were washed twice with tissue culture medium and resuspended in fresh tissue cultures medium. Total cell and viability counting was performed using a hemacytometer and trypan blue dye exclusion. Cell viability was greater than 95% for the cells to be utilized in the assay. The cells were pelleted and resuspended at 2.5×10^4 cells per ml in tissue culture medium. Cells were added to the drug-containing plates in a volume of 50 μl.
A pretitered aliquot of virus was removed from the freezer −80° C.) and allowed to thaw slowly to room temperature in a biological safety cabinet. The virus was resuspended and diluted into tissue culture medium such that the amount of virus added to each well in a volume of 50 μl will be the amount determined to give complete cell killing at 6 days post-infection. In general the virus pools produced with the IIIB isolate of HIV required the addition of 5 μl of virus per well.
Each plate contained cell control wells (cells only), virus control wells (cells plus virus), drug toxicity control wells (cells plus drug only), drug colorimetric control wells (drug only) as well as experimental wells (drug plus cells plus virus).
After 6 days of incubation at 37° C. in a 5% CO2 incubator, the test plates were analyzed by staining with the tetrazolium dye XTT. XTT-tetrazolium is metabolized by the mitochondrial enzymes of metabolically active cells to a soluble formazan product, allowing the rapid quantitative analysis of the inhibition of HIV-induced cell killing by anti-HIV test substances. On day 6 post-infection plates were removed from the incubator and observed. The use of round bottom microtiter plates allows rapid macroscopic analysis of the activity of a given test compound by the evaluation of pellet size. The results of the macroscopic observations were confirmed and enhanced by further microscopic analysis.
XTT solution was prepared daily as a stock of 1 mg/ml in PBS. Phenazine methosulfate (PMS) solution was prepared at 15 mg/ml in PBS and stored in the dark at −20° C. XTT/PMS stock was prepared immediately before use by diluting the PMS 1:100 into PBS and adding 40 μl per ml of XTT solution. Fifty microliters of XTT/PMS was added to each well of the plate and the plate was incubated for an additional 4 hours at 37° C. Adhesive plate sealers were used in place of the lids, the sealed plate was inverted several times to mix the soluble formazan product and the plate was read spectrophotometrically at A450 nm with a Molecular Devices Vmax plate reader.

[1] = test system: low passage, clinical strains of HIV-1; experiment: Anti-HIV activity in fresh human peripheral blood mononuclear cells; type: cell-based; settings: fresh human PBMC; varies from strain to strain
Experimental: In another experiment, the anti-HIV activity of Oligos 12, 32, and 41 was evaluated against a variety of low passage, clinical strains of HIV-1 in fresh human peripheral blood mononuclear cells. These strains include viruses obtained from pediatric patients attending the Children's Hospital University of Alabama at Birmingham as well as viruses representative of the various HIV-1 clades found throughout the world, shown below in TABLE 4.
Fresh human peripheral blood lymphocytes (PBL) were isolated from voluntary Red Cross donors, seronegative for HIV and HBV. Leukophoresed blood was diluted 1:1 with Dulbecco's phosphate buffered saline (PBS), layered over 14 ml of Ficoll-Hypaque density gradient in a 50 ml centrifuge tube. Tubes were then centrifuged for 30 minutes at 600×g. Banded PBLs were gently aspirated from the resulting interface and subsequently washed 2× with PBS by low speed centrifugation. After final wash, cells were enumerated by trypan blue exclusion and re-suspended at 1×10^7/ml in RPMI 1640 with 15% Fetal Bovine Serum (FBS), 2 mM L-glutamine, […] PHA-P and allowed to incubate for 48–72 hours at 37° C. After incubation, PBLs were centrifuged and reset in RPMI 1640 with 15% FBS, 2 mM L-glutamine, 100 U/ml penicillin, 100 μg/ml streptomycin, 10 μg/ml gentamycin, and 20 U/ml recombinant human IL-2. PBLs were maintained in this medium at a concentration of 1–2×10^6/ml with bi-weekly medium changes, until use in assay protocol. […]
In the standard PBL assay (MOI: 0.2), the assay was ended on day 7 following collection of cell free supernatant samples for reverse transcriptase activity assay. In the low MOI PBL assay (MOI: 0.02), supernatant samples were collected on day 6, day 11, and day 14 post-infection and analyzed for RT activity. […] Opti-Fluor O was added to each sample and incorporated radioactivity was quantified utilizing a liquid scintillation counter, (Wallac 1450 Microbetaplus, Gaithersburg, Md.).

[2] = In vivo bioavailability after a single dose, rats; settings: intravenous and oral
[3] = test system: monocyte-macrophage-tropic strains BaL and ADA; experiment: Anti-HIV assay in fresh human monocyte-macrophages; type: cell-based, HIV-1
Experimental: In addition to these T-tropic strains, the activity of the compounds was also evaluated against the monocyte-macrophage strains BaL and ADA. Oligos 12 and 32 according to the invention, as well as Oligo 41 are active against low passage clinical T-tropic strains of HIV-1. The activity of the compounds varies from strain to strain. The compounds were not active against the monocyte-macrophage-tropic strains BaL and ADA.
For isolation of adherent cells, 3×10^6 non-PHA stimulated peripheral blood cells were resuspended in Hanks buffered saline (with calcium and magnesium) supplemented with 10% human AB serum. The cells were placed in a 24-well microtiter plate at 37° C. for 2 hours. Non-adherent cells were removed by vigorously washing six times. The adherent cells were cultured for 7 days in RPMI 1640 tissue culture medium with 15% fetal bovine serum. The cultures were carefully monitored for confluency during this incubation period. Infection of the cells was performed with the monocytotropic HIV-1 strains BaL or ADA and the matched pair of AZT-sensitive and AZT-resistant virus isolates. Each of these virus isolates was obtained from the NIAID AIDS Research and Reference Reagent Program. High titer pools of each of these viruses have been harvested from infected cultures of peripheral blood adherent cells and frozen in 1.0 ml aliquots at −80° C. Monocyte-macrophage monolayers were infected at an MOI of 0.1. Compounds to be evaluated in the monocyte-macrophage assay are added to the monolayers shortly before infection in order to maximize the potential for identifying active compounds.
At 2 days post-infection, the medium was decanted and the cultures washed twice with complete medium in order to remove excess virus. […] Control curves are generated in each assay to accurately quantify the amount of capsid protein in each sample. Data was obtained by spectrophotometric analysis at 450 nm using a plate reader (Molecular Devices Vmax). P24 concentrations were calculated from the optical density values by use of the Molecular Device software package Soft Max.

[4] = In vivo bioavailability after a single dose, monkeys; settings: intravenous and oral
HIV-1 (IIIB, RF and SK1) = experiment: XTT-based anti-HIV assay, laboratory strains of HIV-1; type: cell-based
Source text: as §1
as §2, with “Cells were added to the drug-containing plates in a volume of 50 μl.” left out
A pretitered aliquot of virus was removed from the freezer −80° C.) and allowed to thaw slowly to room temperature in a biological safety cabinet. The virus was resuspended and diluted into tissue culture medium such that the amount of virus added to each well in a volume of 50 μl will be the amount determined to give complete cell killing at 6 days post-infection. […]
After 6 days of incubation at 37° C. in a 5% CO2 incubator, the test plates were analyzed by staining with the tetrazolium dye XTT. XTT-tetrazolium is metabolized by the mitochondrial enzymes of metabolically active cells to a soluble formazan product, allowing the rapid quantitative analysis of the inhibition of HIV-induced cell killing by anti-HIV test substances. […]
XTT solution was prepared daily as a stock of 1 mg/ml in PBS. […] Adhesive plate sealers were used in place of the lids, the sealed plate was inverted several times to mix the soluble formazan product and the plate was read spectrophotometrically at A450 nm with a Molecular Devices Vmax plate reader.

Substance | inhibition of HIV-1 infection (HIV-1 IIB; MT-4 cells treated during initial infection (FIG. 1)) | inhibition of HIV-1 infection (HIV-1 IIB; MT-4 cells treated following initial infection, post-viral adsorption (FIG. 2)) | inhibition of HIV-2-induced cell killing (HIV-2 (ROD); XTT assay (FIG. 3)) | activity against low passage clinical T-tropic strains of HIV-1 [1] | bioavailability [2] | level of activity against the HIV-2 strain ROD (HIV-2 (ROD); compared with the HIV-1 strains, XTT assay) | activity against HIV-2 (HIV-2 (ROD); strain ROD, XTT assay) | activity against monocyte-macrophage-tropic strains BaL and ADA [3] | bioavailability [4] | activity against HIV-1 (HIV-1 (IIIB, RF and SK1))
4×4: 21mer phosphorothioate linked oligonucleotide, deoxyribonucleotides flanked on each side by four 2′-O-methyl ribonucleotides; SEQ ID NO:1 (UCGCACCCATCTCTCTCCUUC; sugars from the 5' end m4 d13 m4, all phosphorothioate, methylation of C not given here) | inhibition of HIV-1 infection | inhibition of HIV-1 infection | inhibit HIV-2-induced cell killing |  |  |  |  |  |  | 
UCGCACCCATCTCTCTCCUUC (chemistry not given here) [Oligo 12] |  |  |  | active | intravenously and orally bioavailable | enhanced level of activity | active | not active | intravenously and orally bioavailable | active
